In PubChem BioAssay AID330 (DTP/NCI, 2004):
Toxic doses and inconclusive results are not listed. Numbered stars: 1 amine (or outer) side, 2 acyl side, 3 side chain; on linkers, the order of the positions; unused ones are H or OH. Bridge positions count the residues as written; N and C are the ends. Square brackets hold non-standard residues; d marks the D form. Peptide text beside a SMILES is read from it. ξ: configuration not given here. X1 = CC[C@@H](C)[C@H](N[*:1])[C@H](O)CC(=O)OC(C(=O)C(C)C(=O)[*:2])C(C)C; ξNMeY = CNC(Cc1ccc(O)cc1)C(=O)O; ξNMeL = CNC(CC(C)C)C(=O)O; ξL = CC(C)CC(N)C(=O)O; ξT = CC(O)C(N)C(=O)O; ξP = O=C(O)C1CCCN1

System: P388 leukemia ip, CD2F1 mice, survival T/C
Assay: NCI In Vivo Anticancer Drug Screen. Data for tumor model P388 Leukemia (intraperitoneal) in CD2F1 (CDF1) mice
Conditions: endpoint: median survival time, higher = longer survival
Summary of the method: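 Mice carrying the transplanted tumor received test compound or vehicle. Survival was recorded in each group, and the value is the treated-group measurement divided by that of the vehicle-treated control group.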

[1] = dose: 60.0 mg/kg/injection, schedule: Q01DX005 (ip), vehicle: saline with Tween-80
[2] = dose: 50.0 mg/kg/injection, schedule: Q01DX005 (ip), vehicle: Klucel (hydroxypropylcellulose) (HPC)
[3] = dose: 100.0 mg/kg/injection, schedule: Q01DX005 (ip), vehicle: Klucel (hydroxypropylcellulose) (HPC)

CC[C@@H](C)[C@@H]1NC(=O)C(NC(=O)C(CC(C)C)NC)C(C)OC(=O)C(Cc2ccc(OC)cc2)N(C)C(=O)C2CCCN2C(=O)C(CC(C)C)NC(=O)C(C)C(=O)C(C(C)C)OC(=O)C[C@H]1O (stereo partly specified) (H-[ξNMeL][ξT][X1][ξL][ξP][ξNMeY](Me); ester 2-C) was tested, and the T/C (dose: 0.06 mg/kg/injection, schedule: Q01DX005 (ip), vehicle: water) was 104 % of control, the T/C (dose: 0.13 mg/kg/injection, schedule: Q01DX005 (ip), vehicle: water) was 112 % of control and the T/C (dose: 0.25 mg/kg/injection, schedule: Q01DX005 (ip), vehicle: water) was 114 % of control. The T/C (dose: 0.5 mg/kg/injection, schedule: Q01DX005 (ip), vehicle: saline + alcohol) was 113 % of control, the T/C (dose: 1.0 mg/kg/injection, schedule: Q01DX005 (ip), vehicle: saline + alcohol) was 124 % of control and the T/C (dose: 2.0 mg/kg/injection, schedule: Q01DX005 (ip), vehicle: water) was 150 % of control. For the same compound, the T/C (dose: 0.25 micrograms/kg/injection, schedule: Q01DX005 (ip), vehicle: saline + alcohol) was 106 % of control, the T/C (dose: 0.5 micrograms/kg/injection, schedule: Q01DX005 (ip), vehicle: saline + alcohol) was 110 % of control and the T/C (dose: 1.0 micrograms/kg/injection, schedule: Q01DX005 (ip), vehicle: saline + alcohol) was 96 % of control. For the same compound, the T/C (dose: 2.0 micrograms/kg/injection, schedule: Q01DX005 (ip), vehicle: saline + alcohol) was 100 % of control.
In the case of CCN1C(Cl)=NS(=O)(=O)c2ccccc21, the T/C (dose: 15.0 mg/kg/injection, schedule: Q01DX005 (ip), vehicle: saline with Tween-80) was 116 % of control, the T/C (dose: 30.0 mg/kg/injection, schedule: Q01DX005 (ip), vehicle: saline with Tween-80) was 113 % of control and the T/C [1] was 100 % of control.
In the case of CCCCCCCCCCCCCCCC(=O)N(CCCN(C)C)C1CCC(N(CCCN(C)C)C(=O)CCCCCCCCCCCCCCC)CC1 (stereo unspecified), the T/C (dose: 3.13 mg/kg/injection, schedule: Q01DX009 (ip), vehicle: saline sonified) was 90 % of control, the T/C (dose: 6.25 mg/kg/injection, schedule: Q01DX009 (ip), vehicle: saline sonified) was 90 % of control and the T/C (dose: 12.5 mg/kg/injection, schedule: Q01DX009 (ip), vehicle: saline sonified) was 90 % of control.
Fc1ccc(CN2COc3c(ccc4cccnc34)C2)c(F)c1 was tested, and the T/C (dose: 100.0 mg/kg/injection, schedule: Q04DX003 (ip), vehicle: Klucel (hydroxypropylcellulose) (HPC)) was 95 % of control, the T/C (dose: 200.0 mg/kg/injection, schedule: Q04DX003 (ip), vehicle: Klucel (hydroxypropylcellulose) (HPC)) was 112 % of control and the T/C (dose: 400.0 mg/kg/injection, schedule: Q04DX003 (ip), vehicle: Klucel (hydroxypropylcellulose) (HPC)) was 89 % of control.
For COc1cc2oc(-c3ccc(O)cc3O)c(CC=C(C)C)c(=O)c2c(O)c1/C=C/C(C)C, the T/C (dose: 1.56 mg/kg/injection, schedule: Q01DX009 (ip), vehicle: Klucel (hydroxypropylcellulose) (HPC)) was 107 % of control, the T/C (dose: 3.12 mg/kg/injection, schedule: Q01DX009 (ip), vehicle: Klucel (hydroxypropylcellulose) (HPC)) was 105 % of control and the T/C (dose: 6.25 mg/kg/injection, schedule: Q01DX009 (ip), vehicle: Klucel (hydroxypropylcellulose) (HPC)) was 100 % of control. The T/C (dose: 12.5 mg/kg/injection, schedule: Q01DX009 (ip), vehicle: Klucel (hydroxypropylcellulose) (HPC)) was 98 % of control.
For NC(N)=N/N=C/COc1cccnc1, the T/C [1] was 97 % of control, the T/C (dose: 120.0 mg/kg/injection, schedule: Q01DX005 (ip), vehicle: saline with Tween-80) was 100 % of control and the T/C (dose: 240.0 mg/kg/injection, schedule: Q01DX005 (ip), vehicle: saline with Tween-80) was 97 % of control.
C=C(N=NNc1ccccc1)c1ccccc1 was tested, and the T/C [2] was 97 % of control, the T/C [3] was 101 % of control and the T/C (dose: 200.0 mg/kg/injection, schedule: Q01DX005 (ip), vehicle: Klucel (hydroxypropylcellulose) (HPC)) was 93 % of control.
In the case of O=C(O)c1cccnc1Cl, the T/C (dose: 50.0 mg/kg/injection, schedule: Q01DX009 (ip), vehicle: saline with Tween-80) was 103 % of control, the T/C (dose: 100.0 mg/kg/injection, schedule: Q01DX009 (ip), vehicle: saline with Tween-80) was 96 % of control and the T/C (dose: 200.0 mg/kg/injection, schedule: Q01DX009 (ip), vehicle: saline with Tween-80) was 100 % of control.
With CCCCN1C(=S)NC(OC)C1(C)C (stereo unspecified) the T/C (dose: 50.0 mg/kg/injection, schedule: Q01DX009 (ip), vehicle: suspension in saline) was 100 % of control, the T/C (dose: 100.0 mg/kg/injection, schedule: Q01DX009 (ip), vehicle: suspension in saline) was 94 % of control and the T/C (dose: 200.0 mg/kg/injection, schedule: Q01DX009 (ip), vehicle: suspension in saline) was 100 % of control.
For O=C(CBr)NCC1OC(n2cnc3c(=O)[nH]cnc32)C(O)C1O (stereo unspecified), the T/C (dose: 25.0 mg/kg/injection, schedule: Q01DX005 (ip), vehicle: Klucel (hydroxypropylcellulose) (HPC)) was 99 % of control, the T/C [2] was 96 % of control and the T/C [3] was 99 % of control.
With Cc1ccc2sc3ccccc3c(=O)c2c1 the T/C (dose: 50.0 mg/kg/injection, schedule: Q01DX009 (ip), vehicle: saline) was 104 % of control, the T/C (dose: 100.0 mg/kg/injection, schedule: Q01DX009 (ip), vehicle: saline) was 113 % of control and the T/C (dose: 200.0 mg/kg/injection, schedule: Q01DX009 (ip), vehicle: saline) was 87 % of control.
